Calls of active or inactive are those of the source. No cut-off for these calls is given here.
Legend:
[1] = target: UDP-N-acetylglucosamine 1-carboxyvinyltransferase (Escherichia coli K-12, UniProt P0A749); test: Inhibition of Escherichia coli K12 Mur A in presence of UNAG
[2] = target: UDP-N-acetylglucosamine 1-carboxyvinyltransferase (Pseudomonas aeruginosa (strain ATCC 15692 / PAO1 / 1C / PRS 101 / LMG12228), UniProt Q9HVW7); test: Inhibition of Pseudomonas aeruginosa PAO1293 MurA in presence of UNAG
UDP-N-acetylglucosamine 1-carboxyvinyltransferase (Pseudomonas aeruginosa (strain ATCC 15692 / PAO1 / 1C / PRS 101 / LMG12228), UniProt Q9HVW7), sequence (Q9HVW7 whole entry): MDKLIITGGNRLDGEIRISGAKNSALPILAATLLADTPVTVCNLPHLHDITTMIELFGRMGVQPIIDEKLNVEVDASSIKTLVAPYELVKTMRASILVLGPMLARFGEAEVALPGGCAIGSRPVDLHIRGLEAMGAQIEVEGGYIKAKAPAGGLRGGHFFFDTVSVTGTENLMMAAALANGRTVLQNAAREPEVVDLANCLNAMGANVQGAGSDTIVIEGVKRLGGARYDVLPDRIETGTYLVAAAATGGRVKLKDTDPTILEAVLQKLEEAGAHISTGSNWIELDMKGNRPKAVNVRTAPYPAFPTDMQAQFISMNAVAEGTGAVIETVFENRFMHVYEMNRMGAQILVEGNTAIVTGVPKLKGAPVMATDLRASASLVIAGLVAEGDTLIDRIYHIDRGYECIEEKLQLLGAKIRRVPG

[3] = system: UDP-N-acetylglucosamine 1-carboxyvinyltransferase (Escherichia coli K-12), P0A749 [C115D]; test: Inhibition of Escherichia coli K12 Mur A C115D at 50 uM in presence of UNAG
UDP-N-acetylglucosamine 1-carboxyvinyltransferase (Escherichia coli K-12), P0A749 [C115D], sequence (P0A749 whole entry C115D): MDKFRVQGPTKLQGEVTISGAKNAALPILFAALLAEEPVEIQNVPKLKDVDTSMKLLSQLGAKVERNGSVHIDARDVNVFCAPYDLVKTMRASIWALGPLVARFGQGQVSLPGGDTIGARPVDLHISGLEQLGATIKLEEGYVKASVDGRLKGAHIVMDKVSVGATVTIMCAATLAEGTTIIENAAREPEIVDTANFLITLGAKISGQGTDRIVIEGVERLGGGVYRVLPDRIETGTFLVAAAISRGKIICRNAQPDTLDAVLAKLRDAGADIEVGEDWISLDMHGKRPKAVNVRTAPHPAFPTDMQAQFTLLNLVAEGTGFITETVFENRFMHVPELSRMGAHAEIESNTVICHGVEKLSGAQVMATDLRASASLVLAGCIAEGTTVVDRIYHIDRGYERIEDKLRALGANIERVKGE

[4] = Inhibition of MurA at 5 uM; conditions: TDE = time-dependent effect
[5] = Inhibition of MurA at 10 uM; conditions: TDE = time-dependent effect

UDP-N-acetylglucosamine 1-carboxyvinyltransferase (Escherichia coli K-12, UniProt P0A749), sequence (P0A749 whole entry): as the sequence (P0A749 whole entry C115D) above, with D115C counted along it

Row | SMILES | IC50 [1] [µM] | IC50 [2] [µM] | Activity [3] | Activity [4] | Activity [5]
1 | C=C1C(=O)O[C@@H]2/C=C(\CO)CC/C=C(\C)C[C@H](OC(=O)C(=C)[C@H](O)CO)[C@@H]12 [CNICIN] | 16.7 | 10.3 | inactive | tde | 
2 | C=C1CC[C@H]2C(=C)CC[C@H]3C(=C)C(=O)O[C@@H]3[C@@H]12 [DEHYDROCOSTUSLACTONE] | > 50 | > 50 | inactive |  | 
3 | C=C1C(=O)O[C@@H]2C[C@@]3(C)CCC[C@H](C)C3=C[C@H]12 [HELENINE] | > 50 | > 50 | inactive |  | 
4 | C[C@@H]1O[C@@H]1P(=O)(O)O [FOSFOMYCIN] | 0.118 | 10.5 | inactive | tde | 
5 | C=C1C(=O)O[C@@H]2/C=C(\C)CC/C=C(/C)C[C@@H](OC(=O)/C(=C/CO)CO)[C@@H]12 [EUPATORIOPICRIN] | 32.7 | 19.8 | inactive |  | tde
6 | C=C(CO)C(=O)O[C@H]1CC(=C)[C@@H]2C[C@H](O)C(=C)[C@@H]2[C@H]2OC(=O)C(=C)[C@@H]21 [CYNAROPICRIN] | 19.5 | 12.1 | inactive | tde | 

More lines, main results first:

Row | IC50 [1] [µM] | IC50 [2] [µM] | Activity [3] | SMILES | Activity [4] | Activity [5]
7 | > 50 | 27.8 | inactive | C=C1C(=O)O[C@@H]2C3O[C@]3(C)CC/C=C(\C)CC[C@@H]12 (some centres undefined) |  | 
8 | > 50 | > 50 |  | C=C1C(=O)O[C@@H]2/C=C(\C)CC/C=C(\C)CC[C@@H]12 (stereo in doubt; 7) [COSTUNOLIDE] |  | 
9 | > 50 | > 50 | inactive | C=C1C(=O)O[C@@H]2[C@@H]1CC[C@]1(C)CCC=C(C)[C@@H]21 |  | 
10 |  |  | inactive | C=C1C(=O)O[C@@H]2/C=C(\C)CC/C=C(\C)CC[C@@H]12 (stereo in doubt; 10) |  | 
11 |  |  | inactive | C=C1C(=O)O[C@@H]2/C=C(\C)CC/C=C(\C)CC[C@@H]12 (stereo in doubt; 7) |  | 
12 | > 50 | > 50 |  | C=C1C(=O)O[C@@H]2/C=C(\C)CC/C=C(\C)CC[C@@H]12 (stereo in doubt; 10) [COSTUNOLIDE] |  | 

From ChEMBL document CHEMBL1139708, “Sesquiterpene lactones are potent and irreversible inhibitors of the antibacterial target enzyme MurA” (Bioorg Med Chem Lett, 2006)
